The record followed here is article PMC5218480 (PLoS ONE, 2017).

In the experiment the test system is MV-4-11 cells. Put plainly: Gene expression microarray analysis (Affymetrix PrimeView) and GSEA. Type of experiment: cell-based, human. Details: RFU PODN (11730768_x_at) / Fold change /veh PODN (11730768_x_at) / RFU LINC00158 (11744669_a_at) / Fold change /veh LINC00158 (11744669_a_at) / RFU DUSP10 (11751237_a_at) / Fold change /veh DUSP10 (11751237_a_at) / RFU ID3 (11757404_x_at) / Fold change /veh ID3 (11757404_x_at) / RFU PLEKHG5 (11737974_s_at) / Fold change /veh PLEKHG5 (11737974_s_at) / RFU LRRC4B (11730491_at) / Fold change /veh LRRC4B (11730491_at) / RFU GIMAP4 (11747438_a_at) / Fold change /veh GIMAP4 (11747438_a_at) / RFU KRT8 (11758183_x_at) / Fold change /veh KRT8 (11758183_x_at) / RFU CNN1 (11734310_a_at) / Fold change /veh CNN1 (11734310_a_at) / RFU VPS37D (11726825_at) / Fold change /veh VPS37D (11726825_at) / RFU C10orf10 (11716522_x_at) / Fold change /veh C10orf10 (11716522_x_at) / RFU KIR2DL2 /// KIR2DL4 /// KIR2DL5A /// KIR2DL5B /// KIR2DS1 /// KIR2DS2 /// KIR2DS3 /// KIR2DS4 /// KIR3DL3 /// KIR3DL3 /// KIR3DS1 (11738374_at) / Fold change /veh KIR2DL2 /// KIR2DL4 /// KIR2DL5A /// KIR2DL5B /// KIR2DS1 /// KIR2DS2 /// KIR2DS3 /// KIR2DS4 /// KIR3DL3 /// KIR3DL3 /// KIR3DS1 (11738374_at) / RFU C1QL1 (11718748_at) / Fold change /veh C1QL1 (11718748_at) / RFU TMPRSS4 (11747572_a_at) / Fold change /veh TMPRSS4 (11747572_a_at) / RFU HAMP (11756126_x_at) / Fold change /veh HAMP (11756126_x_at) / RFU RNFT2 (11725882_a_at) / Fold change /veh RNFT2 (11725882_a_at) / RFU NR4A2 (11747474_a_at) / Fold change /veh NR4A2 (11747474_a_at) / RFU ABCC12 (11746883_a_at) / Fold change /veh ABCC12 (11746883_a_at) / RFU TMEM136 (11760407_x_at) / Fold change /veh TMEM136 (11760407_x_at) / RFU CLDN22 /// WWC2 (11732394_at) / Fold change /veh CLDN22 /// WWC2 (11732394_at) / RFU HLA-DPB1 (11760878_x_at) / Fold change /veh HLA-DPB1 (11760878_x_at) / RFU SPINT1 (11716480_a_at) / Fold change /veh SPINT1 (11716480_a_at) / RFU GAP43 (11754022_s_at) / Fold change /veh GAP43 (11754022_s_at) / RFU A4GNT (11735810_at) / Fold change /veh A4GNT (11735810_at) / RFU PRB3 (11715151_x_at) / Fold change /veh PRB3 (11715151_x_at) / RFU TUBB4B (11761932_at) / Fold change /veh TUBB4B (11761932_at) / RFU CAPN14 (11732068_a_at) / Fold change /veh CAPN14 (11732068_a_at) / RFU TMCC2 (11721928_a_at) / Fold change /veh TMCC2 (11721928_a_at) / RFU IRGQ (11745062_a_at) / Fold change /veh IRGQ (11745062_a_at) / RFU FAM174B (11720279_a_at) / Fold change /veh FAM174B (11720279_a_at) / RFU TMPRSS4 (11748680_a_at) / Fold change /veh TMPRSS4 (11748680_a_at) / RFU FAM212B (11763350_a_at) / Fold change /veh FAM212B (11763350_a_at) / RFU PLEKHG5 (11743358_a_at) / Fold change /veh PLEKHG5 (11743358_a_at) / RFU ZSCAN30 (11745921_a_at) / Fold change /veh ZSCAN30 (11745921_a_at) / RFU CMKLR1 (11741424_a_at) / Fold change /veh CMKLR1 (11741424_a_at) / RFU LOC101060620 /// MAPK8IP1 (11723275_at) / Fold change /veh LOC101060620 /// MAPK8IP1 (11723275_at) / RFU SPTSSB (11747773_x_at) / Fold change /veh SPTSSB (11747773_x_at) / RFU PRSS12 (11739890_at) / Fold change /veh PRSS12 (11739890_at) / RFU BIN1 (11741810_x_at) / Fold change /veh BIN1 (11741810_x_at) / RFU WNT11 (11732464_a_at) / Fold change /veh WNT11 (11732464_a_at) / RFU C10orf10 (11716521_a_at) / Fold change /veh C10orf10 (11716521_a_at) / RFU C5orf56 (11738089_at) / Fold change /veh C5orf56 (11738089_at) / RFU CYB561 (11721691_x_at) / Fold change /veh CYB561 (11721691_x_at) / RFU ANKRD19P (11752326_a_at) / Fold change /veh ANKRD19P (11752326_a_at) / RFU OR2T12 /// OR2T33 /// OR2T8 (11738714_s_at) / Fold change /veh OR2T12 /// OR2T33 /// OR2T8 (11738714_s_at) / RFU VCAN (11748164_a_at) / Fold change /veh VCAN (11748164_a_at) / RFU JSRP1 (11732532_at) / Fold change /veh JSRP1 (11732532_at) / RFU KRTAP10-11 (11738290_x_at) / Fold change /veh KRTAP10-11 (11738290_x_at) / RFU MYO3A (11730013_a_at) / Fold change /veh MYO3A (11730013_a_at) / RFU EBF3 (11725865_a_at) / Fold change /veh EBF3 (11725865_a_at) / RFU CAMK2N1 (11719241_x_at) / Fold change /veh CAMK2N1 (11719241_x_at) / RFU C5orf56 (11738088_a_at) / Fold change /veh C5orf56 (11738088_a_at) / RFU OLFML3 (11715873_a_at) / Fold change /veh OLFML3 (11715873_a_at) / RFU LOC100653217 /// NTM (11731650_a_at) / Fold change /veh LOC100653217 /// NTM (11731650_a_at) / RFU MAPK11 (11762145_a_at) / Fold change /veh MAPK11 (11762145_a_at) / RFU FIZ1 (11724087_x_at) / Fold change /veh FIZ1 (11724087_x_at) / RFU OASL (11726364_x_at) / Fold change /veh OASL (11726364_x_at) / RFU SOX15 (11748057_x_at) / Fold change /veh SOX15 (11748057_x_at) / RFU CD79A (11719716_a_at) / Fold change /veh CD79A (11719716_a_at) / RFU HIST1H1D (11736915_at) / Fold change /veh HIST1H1D (11736915_at) / RFU CASKIN2 (11723855_a_at) / Fold change /veh CASKIN2 (11723855_a_at) / RFU LOC730098 (11760151_x_at) / Fold change /veh LOC730098 (11760151_x_at) / RFU OR4N2 (11742367_at) / Fold change /veh OR4N2 (11742367_at) / RFU PRRT2 (11749266_a_at) / Fold change /veh PRRT2 (11749266_a_at) / RFU SNX32 (11753110_a_at) / Fold change /veh SNX32 (11753110_a_at) / RFU CDHR5 (11726645_a_at) / Fold change /veh CDHR5 (11726645_a_at) / RFU RCAN1 (11760418_a_at) / Fold change /veh RCAN1 (11760418_a_at) / RFU FAM167A (11723789_a_at) / Fold change /veh FAM167A (11723789_a_at) / RFU FAM26E (11764081_at) / Fold change /veh FAM26E (11764081_at) / RFU ISYNA1 (11749810_s_at) / Fold change /veh ISYNA1 (11749810_s_at) / RFU ACY1 (11761880_at) / Fold change /veh ACY1 (11761880_at) / RFU 11764098_at / Fold change /veh 11764098_at / RFU SAMD14 (11745864_x_at) / Fold change /veh SAMD14 (11745864_x_at) / RFU NPB (11741838_a_at) / Fold change /veh NPB (11741838_a_at) / RFU TMPRSS6 (11731388_a_at) / Fold change /veh TMPRSS6 (11731388_a_at) / RFU KRTAP10-2 (11738614_at) / Fold change /veh KRTAP10-2 (11738614_at) / RFU ARHGAP8 /// PRR5-ARHGAP8 (11727945_x_at) / Fold change /veh ARHGAP8 /// PRR5-ARHGAP8 (11727945_x_at) / RFU KRTAP5-7 /// NADSYN1 (11734609_at) / Fold change /veh KRTAP5-7 /// NADSYN1 (11734609_at) / RFU RASL12 (11751679_a_at) / Fold change /veh RASL12 (11751679_a_at) / RFU CDKN2B (11736163_a_at) / Fold change /veh CDKN2B (11736163_a_at) / RFU PRF1 (11729649_at) / Fold change /veh PRF1 (11729649_at) / RFU, ZNF638 /// ZNF638-IT1 / Fold change vs veh, ZNF638 /// ZNF638-IT1 / RFU, PANK3 / Fold change vs veh, PANK3 / RFU, SH3YL1 / Fold change vs veh, SH3YL1 / RFU, ZEB2 / Fold change vs veh, ZEB2 / RFU, NRIP1 / Fold change vs veh, NRIP1 / RFU, PTTG1IP / Fold change vs veh, PTTG1IP / RFU, CAPN2 / Fold change vs veh, CAPN2 / RFU, MED14 / Fold change vs veh, MED14 / RFU, SNORA58 / Fold change vs veh, SNORA58 / RFU, C1orf63 / Fold change vs veh, C1orf63 / RFU, LRRFIP1 / Fold change vs veh, LRRFIP1 / RFU, NDUFAF7 / Fold change vs veh, NDUFAF7 / RFU, SLC12A2 / Fold change vs veh, SLC12A2 / RFU, IBTK / Fold change vs veh, IBTK / RFU, ESF1 / Fold change vs veh, ESF1 / Fold change vs veh, TMEM50B / RFU, TAOK1 / Fold change vs veh, TAOK1 / RFU, ACBD3 / Fold change vs veh, ACBD3 / RFU, TMA16 / Fold change vs veh, TMA16 / RFU, RWDD3 / Fold change vs veh, RWDD3 / RFU, BCAT1 / Fold change vs veh, BCAT1 / RFU, EDEM3 / Fold change vs veh, EDEM3 / RFU, TMEM33 / Fold change vs veh, TMEM33 / RFU, WDR75 / Fold change vs veh, WDR75 / RFU, AHCTF1 / Fold change vs veh, AHCTF1 / RFU, TFRC / Fold change vs veh, TFRC / RFU, ZDHHC17 / Fold change vs veh, ZDHHC17 / RFU, NOM1 / Fold change vs veh, NOM1 / RFU, ARL8B / Fold change vs veh, ARL8B / RFU, ZBTB11 / Fold change vs veh, ZBTB11 / RFU, TAMM41 / Fold change vs veh, TAMM41 / RFU, KIAA1704 /// LOC100996395 / Fold change vs veh, KIAA1704 /// LOC100996395 / RFU, ING1 / Fold change vs veh, ING1 / RFU, TRMT61B / Fold change vs veh, TRMT61B / RFU, FUBP3 / Fold change vs veh, FUBP3 / RFU, TP53 / Fold change vs veh, TP53 / RFU, TNKS2 / Fold change vs veh, TNKS2 / RFU, ZFP14 / Fold change vs veh, ZFP14 / RFU, ACTR2 / Fold change vs veh, ACTR2 / RFU, PPP3R1 / Fold change vs veh, PPP3R1 / RFU, PIK3R1 / Fold change vs veh, PIK3R1 / RFU, HNRNPA1 / Fold change vs veh, HNRNPA1 / RFU, RNF170 / Fold change vs veh, RNF170 / RFU, ZNF28 / Fold change vs veh, ZNF28 / RFU, RNGTT / Fold change vs veh, RNGTT / RFU, OGT / Fold change vs veh, OGT / RFU, BRD1 / Fold change vs veh, BRD1 / RFU, MARS / Fold change vs veh, MARS / RFU, ZNF655 / Fold change vs veh, ZNF655 / RFU, FAHD1 / Fold change vs veh, FAHD1 / RFU, BDP1 / Fold change vs veh, BDP1 / RFU, LRRCC1 / Fold change vs veh, LRRCC1 / RFU, ARID1A / Fold change vs veh, ARID1A / RFU, ZNF146 / Fold change vs veh, ZNF146 / RFU, ZNF330 / Fold change vs veh, ZNF330 / RFU, GPN3 / Fold change vs veh, GPN3 / RFU, C9orf123 / Fold change vs veh, C9orf123 / RFU, N4BP2L2 / Fold change vs veh, N4BP2L2 / RFU, ARFIP1 / Fold change vs veh, ARFIP1 / RFU, FAM179B / Fold change vs veh, FAM179B / RFU, BCL10 / Fold change vs veh, BCL10 / RFU, UHRF1BP1L / Fold change vs veh, UHRF1BP1L / RFU, BET1 / Fold change vs veh, BET1 / RFU, CNOT2 / Fold change vs veh, CNOT2 / RFU, ZNF268 / Fold change vs veh, ZNF268 / Fold change vs veh, ZNF507 / RFU, DGCR2 / Fold change vs veh, DGCR2 / RFU, WDSUB1 / Fold change vs veh, WDSUB1 / Fold change vs veh, HSP90B1 /// MIR3652 / RFU, ADSS / Fold change vs veh, ADSS / RFU, GK / Fold change vs veh, GK / RFU, ZNF148 / Fold change vs veh, ZNF148 / RFU, TAF9 / Fold change vs veh, TAF9 / RFU, SLC1A5 / Fold change vs veh, SLC1A5 / RFU, SLMO2 / Fold change vs veh, SLMO2 / RFU, ABCC4 / Fold change vs veh, ABCC4 / RFU, LOC101060439 /// RAP1B / Fold change vs veh, LOC101060439 /// RAP1B / RFU, RFX7 / Fold change vs veh, RFX7 / RFU, GTPBP10 / Fold change vs veh, GTPBP10 / RFU, CNEP1R1 / Fold change vs veh, CNEP1R1 / RFU, BIVM-ERCC5 /// ERCC5 / Fold change vs veh, BIVM-ERCC5 /// ERCC5 / RFU, ILF3 / Fold change vs veh, ILF3 / RFU 11762660_at / Fold change /veh 11762660_at / RFU VCAN (11757783_s_at) / Fold change /veh VCAN (11757783_s_at) / RFU DDX43 (11728927_at) / Fold change /veh DDX43 (11728927_at) / RFU KRT8 (11758188_x_at) / Fold change /veh KRT8 (11758188_x_at) / RFU NKD1 (11759106_at) / Fold change /veh NKD1 (11759106_at) / RFU SRD5A1 (11742802_a_at) / Fold change /veh SRD5A1 (11742802_a_at) / RFU TPSAB1 /// TPSB2 (11721975_s_at) / Fold change /veh TPSAB1 /// TPSB2 (11721975_s_at) / RFU GSTM3 (11746129_a_at) / Fold change /veh GSTM3 (11746129_a_at) / RFU IL23R (11737362_x_at) / Fold change /veh IL23R (11737362_x_at) / RFU TMEM51 (11727254_a_at) / Fold change /veh TMEM51 (11727254_a_at) / RFU PIWIL2 (11732686_x_at) / Fold change /veh PIWIL2 (11732686_x_at) / RFU ORM1 (11744905_x_at) / Fold change /veh ORM1 (11744905_x_at) / RFU CCDC152 (11743942_at) / Fold change /veh CCDC152 (11743942_at) / RFU ECM1 (11717891_a_at) / Fold change /veh ECM1 (11717891_a_at) / RFU IL23R (11748794_a_at) / Fold change /veh IL23R (11748794_a_at) / RFU TNFAIP8L3 (11732012_x_at) / Fold change /veh TNFAIP8L3 (11732012_x_at) / RFU MBOAT4 (11741988_at) / Fold change /veh MBOAT4 (11741988_at) / RFU 11764193_at / Fold change /veh 11764193_at / RFU TMEM53 (11763286_at) / Fold change /veh TMEM53 (11763286_at) / RFU MAGEB2 (11727129_at) / Fold change /veh MAGEB2 (11727129_at) / RFU TMEM200A (11744735_a_at) / Fold change /veh TMEM200A (11744735_a_at) / RFU CCDC152 (11751479_a_at) / Fold change /veh CCDC152 (11751479_a_at) / RFU FAM211A (11726209_a_at) / Fold change /veh FAM211A (11726209_a_at) / RFU RGS16 (11746705_a_at) / Fold change /veh RGS16 (11746705_a_at) / RFU VCAN (11755009_s_at) / Fold change /veh VCAN (11755009_s_at) / RFU RHOB (11743442_s_at) / Fold change /veh RHOB (11743442_s_at) / RFU RGS16 (11720943_a_at) / Fold change /veh RGS16 (11720943_a_at) / RFU RGS16 (11720944_at) / Fold change /veh RGS16 (11720944_at) / RFU, VPS4B / Fold change vs veh, VPS4B / RFU, CREB1 / Fold change vs veh, CREB1 / RFU, DNAJC13 / Fold change vs veh, DNAJC13 / RFU, GNAQ / Fold change vs veh, GNAQ / RFU, CDK5R1 / Fold change vs veh, CDK5R1 / RFU, ZRANB3 / Fold change vs veh, ZRANB3 / RFU, CUL4A / Fold change vs veh, CUL4A / RFU, CCNY / Fold change vs veh, CCNY / RFU, UFL1 / Fold change vs veh, UFL1 / RFU, COG3 / Fold change vs veh, COG3 / RFU, DIAPH2 / Fold change vs veh, DIAPH2 / RFU, SKA2 / Fold change vs veh, SKA2 / RFU, AFF3 / Fold change vs veh, AFF3 / RFU, LMF1 / Fold change vs veh, LMF1 / RFU, IPO11 / Fold change vs veh, IPO11 / RFU, DFFB / Fold change vs veh, DFFB / RFU, FOXP1 / Fold change vs veh, FOXP1 / RFU, CARD8 / Fold change vs veh, CARD8 / RFU, STRN3 / Fold change vs veh, STRN3 / RFU, ADK / Fold change vs veh, ADK / RFU, RASSF2 / Fold change vs veh, RASSF2 / RFU, WIPF1 / Fold change vs veh, WIPF1 / RFU, LARP1B / Fold change vs veh, LARP1B / RFU, RASA1 / Fold change vs veh, RASA1 / RFU, RB1 / Fold change vs veh, RB1 / RFU, PPFIA1 / Fold change vs veh, PPFIA1 / RFU, MAT2A / Fold change vs veh, MAT2A / RFU, CCT5 / Fold change vs veh, CCT5 / RFU, WDR92 / Fold change vs veh, WDR92 / RFU, CUX1 / Fold change vs veh, CUX1 / RFU, TTC7A / Fold change vs veh, TTC7A / RFU, TMEM135 / Fold change vs veh, TMEM135 / RFU, DEPTOR / Fold change vs veh, DEPTOR / RFU, CPM / Fold change vs veh, CPM / RFU, DNAJB6 / Fold change vs veh, DNAJB6 / RFU, CACNA2D3 / Fold change vs veh, CACNA2D3 / RFU, DTX4 / Fold change vs veh, DTX4 / RFU, TFCP2 / Fold change vs veh, TFCP2 / RFU, GMCL1 /// GMCL1P1 / Fold change vs veh, GMCL1 /// GMCL1P1 / RFU, AEBP2 / Fold change vs veh, AEBP2 / RFU, SNHG1 /// SNORD22 /// SNORD25 /// SNORD26 /// SNORD27 /// SNORD28 /// SNORD29 /// SNORD31 / Fold change vs veh, SNHG1 /// SNORD22 /// SNORD25 /// SNORD26 /// SNORD27 /// SNORD28 /// SNORD29 /// SNORD31 / Fold change (Aza/veh), C12orf56 (ProbeSet 11735607_a_at) / Fold change (ACY-1035/veh), C12orf56 (ProbeSet 11735607_a_at) / Fold change (Aza/veh), FGFR1OP (ProbeSet 11751329_s_at) / Fold change (ACY-1035/veh), FGFR1OP (ProbeSet 11751329_s_at) / Fold change (Aza/veh), VPS36 (ProbeSet 11739960_a_at) / Fold change (ACY-1035/veh), VPS36 (ProbeSet 11739960_a_at) / RFU SYPL1 (11715823_x_at) / Fold change /veh SYPL1 (11715823_x_at) / RFU IGFBP7 (11715501_s_at) / Fold change /veh IGFBP7 (11715501_s_at) / RFU REEP3 (11722064_at) / Fold change /veh REEP3 (11722064_at) / RFU IGLL1 (11728026_x_at) / Fold change /veh IGLL1 (11728026_x_at): dose or concentration left out as unconfirmed. The following applies: MV-4-11 cells, 48 hours.

Consider `Nc1ncn([C@@H]2O[C@H](CO)[C@@H](O)[C@H]2O)c(=O)n1` [azacitidine], for which the “RFU SPINT1 (11716480_a_at)” value was 23.10 RFU.
